Data as given in patent publication US20050101595A1, “N-containing cycloalkyl-substituted amino-thiazole derivatives and pharmaceutical compositions for inhibiting cell proliferation and methods for their use” (PFIZER INC., priority 2003, published 2005).
pIC50, pKi: −log10 of the molar value. Counter-ions that a name gives are not always drawn. Like-named read-outs stand apart in the source and are kept apart here.

Assays:
HCT-116 cell line = test: Inhibition of cell growth, tetrazolium salt (MTT) assay; assay type: cell-based; conditions: for pIC50: Homo sapiens, HCT-116, 120 h, MTT, three to five days, read-out: HCT-116 IC50; for HCT-116 % Inhibition at 0.25 μM: 0.25 μM compound
In short: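 HCT-116 cells in McCoy's 5A medium received compound 4 h after plating (0.5% v/v DMSO) and were incubated three to five days at 37° C, 5% CO2. MTT (0.2 mg/mL final) then added for 4 h; DMSO-solubilized formazan read at 540 nm against 0.5% DMSO-treated controls.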

[1] = target: human CDK4 and genetically truncated (1-264) cyclin D3 (Homo sapiens, UniProt P11802); test: Inhibition of CDK4/Cyclin D Retinoblastoma Kinase Activity; assay type: biochemical; conditions: for pKi: apparent Ki, CDK4/truncated cyclin D3, Rb fragment substrate, 25 μM ATP
Sequence of human CDK4 and genetically truncated (1-264) cyclin D3 (P11802 whole entry, the tested form may be a part): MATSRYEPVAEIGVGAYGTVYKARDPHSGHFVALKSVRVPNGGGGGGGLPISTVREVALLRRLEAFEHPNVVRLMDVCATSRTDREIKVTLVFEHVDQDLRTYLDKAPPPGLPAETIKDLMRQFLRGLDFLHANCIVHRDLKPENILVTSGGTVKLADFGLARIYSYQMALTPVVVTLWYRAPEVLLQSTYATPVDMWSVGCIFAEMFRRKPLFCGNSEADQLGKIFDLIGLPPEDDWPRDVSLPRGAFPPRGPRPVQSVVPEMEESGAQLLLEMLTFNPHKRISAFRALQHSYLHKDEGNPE
Sequence of human CDK4 and genetically truncated (1-264) cyclin D3 (P30281 1-264 partner): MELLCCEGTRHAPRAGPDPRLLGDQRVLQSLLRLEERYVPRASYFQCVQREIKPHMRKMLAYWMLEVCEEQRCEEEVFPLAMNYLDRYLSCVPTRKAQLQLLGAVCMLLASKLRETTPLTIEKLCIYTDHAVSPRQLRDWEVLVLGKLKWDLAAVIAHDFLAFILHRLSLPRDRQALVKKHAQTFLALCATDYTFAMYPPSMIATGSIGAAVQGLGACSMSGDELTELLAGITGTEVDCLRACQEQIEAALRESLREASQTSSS
In short: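 The enzyme complex (5 nM), expressed in co-infected insect cells, was incubated with recombinant Rb fragment, 25 μM radiolabelled ATP and 2% DMSO at 30 °C. Reactions were stopped with EDTA after 20 minutes, or 60 minutes for tight-binding inhibitors. Apparent Ki values came from competitive inhibition fits.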

CDK2/Cyclin A = CDK2/Cyclin A (Homo sapiens, UniProt P24941); test: Inhibition of CDK2/Cyclin A Retinoblastoma Kinase Activity; assay type: biochemical; conditions: for pKi: apparent Ki, CDK2/proteolyzed cyclin A, Rb fragment substrate, 25 μM ATP; for CDK2 % Inhibition At 0.03 μM: Table 2
In short: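 CDK2 (10 or 19 nM), insect-cell expressed, gel-filtration purified with truncated cyclin A; Rb fragment substrate; 25 μM ATP; 10 mM HEPES pH 7.4, 10 mM MgCl2; 30° C, 60 or 75 min; EDTA stop; phosphocellulose/nitrocellulose capture, phosphorimager. % inhibition vs DMSO control, no-enzyme background subtracted.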

[2] = 0.1 μM compound, HCT-116, Table 4

Nc1nc(NC2CCN(S(=O)(=O)CCCN3CCCCC3)CC2)sc1C(=O)c1c(F)cccc1F [Example K7, 1-(4-Amino-2-{1-[3-(piperidin-1-yl)propane-1-sulfonyl]-piperidin-4-ylamino}-thiazol-5-yl)-1-(2,6-difluoro-phenyl)-methanone.]
pIC50 (HCT-116 cell line; first HCT-116 column (c4)): 6.68 | pIC50 (HCT-116 cell line; second HCT-116 column (c5)): 5.77 | pKi [1]: 8.54 | pKi (CDK2/Cyclin A): 8.70

Nc1nc(NC2CCN(C(=S)Oc3ccccc3)CC2)sc1C(=O)c1c(F)cccc1F [Example C6, 4-[4-Amino-5-(2,6-difluoro-benzoyl)-thiazol-2-ylamino]-piperidine-1-carbothioic Acid O-Phenyl Ester]
pIC50 (HCT-116 cell line; first HCT-116 column (c4)): 6.66 | pIC50 (HCT-116 cell line; second HCT-116 column (c5)): 6.05 | pKi [1]: 8.10 | pKi (CDK2/Cyclin A): 8.21

Nc1nc(NC2CCN(C(=O)c3c(F)cccc3F)CC2)sc1C(=O)c1c(F)cccc1F [Example Q12]
HCT-116 % Inhibition at 0.1 μM (HCT-116 cell line; [2]): 3% | HCT-116 % Inhibition at 0.25 μM (HCT-116 cell line; HCT-116, Table 4): 46% | CDK4 % Inhibition at 0.03 μM ([1]; 0.03 μM compound, Table 4): 22% | CDK2 % Inhibition at 0.03 μM (CDK2/Cyclin A; 0.03 μM compound, Table 4): −20%

Cc1ccc(O)c(C(=O)N2CCC(Nc3nc(N)c(C(=O)c4c(F)cccc4F)s3)CC2)c1 [Example R122]
HCT-116 % Inhibition at 0.1 μM (HCT-116 cell line; HCT-116 cells, at 0.1 μM): 0% | HCT-116 5 Inhibition at 0.25 μM (HCT-116 cell line; HCT-116 cells): 48 | CDK4 % Inhibition at 0.03 μM ([1]; at 0.03 μM): 67% | CDK2 % Inhibition at 0.03 μM (CDK2/Cyclin A; at 0.03 μM): 61%

Nc1nc(NC2CCN(S(=O)(=O)c3ccc(-c4cccnc4)nc3)CC2)sc1C(=O)c1c(F)cccc1F [Example I6, 1-{4-Amino-2-[1-([2,3′]bipyridinyl-5-sulfonyl)-piperidin-4-ylamino]-thiazol-5-yl}-1-(2,6-difluoro-phenyl)-methanone Hydrochloride]
pIC50 (HCT-116 cell line; first HCT-116 column (c4)): 7.43 | pIC50 (HCT-116 cell line; second HCT-116 column (c5)): 6.96 | pKi [1]: 9.43 | pKi (CDK2/Cyclin A): 9.49

N#Cc1ccccc1S(=O)(=O)N1CCC(Nc2nc(N)c(C(=O)c3c(F)cccc3F)s2)CC1 [Example P48]
HCT-116 % Inhibition at 0.1 μM (HCT-116 cell line; 0.1 μM compound, HCT-116, Table 3): 24% | HCT-116 % Inhibition at 0.25 μM (HCT-116 cell line; HCT-116, Table 3): 31% | CDK4 % Inhibition at 0.03 μM ([1]; 0.03 μM compound, Table 3): 67% | CDK2 % Inhibition at 0.03 μM (CDK2/Cyclin A; 0.03 μM compound, Table 3): 59%

CC(C)(C)NC(=O)N1CCC(Nc2nc(N)c(C(=O)c3c(F)cccc3F)s2)CC1 [Example O27]
HCT-116 % Inhibition at 0.25 μM (HCT-116 cell line; HCT-116, Table 2): 24% | CDK4 % Inhibition at 0.03 μM ([1]; 0.03 μM compound, Table 2): 9% | CDK2 % Inhibition At 0.03 μM (CDK2/Cyclin A; 0.03 μM compound): 38%

Nc1nc(NC2CCN(C(=O)c3ccc(F)cc3)CC2)sc1C(=O)c1c(F)cccc1F [Example Q26]
HCT-116 % Inhibition at 0.1 μM (HCT-116 cell line; [2]): 3% | HCT-116 % Inhibition at 0.25 μM (HCT-116 cell line; HCT-116, Table 4): 42% | CDK4 % Inhibition at 0.03 μM ([1]; 0.03 μM compound, Table 4): 60% | CDK2 % Inhibition at 0.03 μM (CDK2/Cyclin A; 0.03 μM compound, Table 4): 18%

Nc1nc(NC2CCN(C(=O)c3ccc(C(F)(F)F)cc3C(F)(F)F)CC2)sc1C(=O)c1c(F)cccc1F [Example R38]
HCT-116 % Inhibition at 0.1 μM (HCT-116 cell line; HCT-116 cells, at 0.1 μM): 0% | HCT-116 5 Inhibition at 0.25 μM (HCT-116 cell line; HCT-116 cells): 33 | CDK4 % Inhibition at 0.03 μM ([1]; at 0.03 μM): 35% | CDK2 % Inhibition at 0.03 μM (CDK2/Cyclin A; at 0.03 μM): 0%

Nc1nc(NC2CCN(C(=O)c3ccc4c(c3)OCO4)CC2)sc1C(=O)c1c(F)cccc1F [Example R7]
HCT-116 % Inhibition at 0.1 μM (HCT-116 cell line; HCT-116 cells, at 0.1 μM): 7% | HCT-116 5 Inhibition at 0.25 μM (HCT-116 cell line; HCT-116 cells): 46 | CDK4 % Inhibition at 0.03 μM ([1]; at 0.03 μM): 29% | CDK2 % Inhibition at 0.03 μM (CDK2/Cyclin A; at 0.03 μM): −3%

CC(=O)c1cccc(NC(=O)N2CCC(Nc3nc(N)c(C(=O)c4c(F)cccc4F)s3)CC2)c1 [Example O47]
HCT-116 % Inhibition at 0.25 μM (HCT-116 cell line; HCT-116, Table 2): 35% | CDK4 % Inhibition at 0.03 μM ([1]; 0.03 μM compound, Table 2): 14% | CDK2 % Inhibition At 0.03 μM (CDK2/Cyclin A; 0.03 μM compound): 35%

Nc1nc(NC2CCN(C(=O)Nc3ccc(Br)cc3)CC2)sc1C(=O)c1c(F)cccc1F [Example O18]
HCT-116 % Inhibition at 0.25 μM (HCT-116 cell line; HCT-116, Table 2): 20% | CDK4 % Inhibition at 0.03 μM ([1]; 0.03 μM compound, Table 2): 9% | CDK2 % Inhibition At 0.03 μM (CDK2/Cyclin A; 0.03 μM compound): 27%

Nc1nc(NC2CCN(C(=O)C3Cc4ccccc43)CC2)sc1C(=O)c1c(F)cccc1F (centres unmarked) [Example R94]
HCT-116 % Inhibition at 0.1 μM (HCT-116 cell line; HCT-116 cells, at 0.1 μM): 0% | HCT-116 5 Inhibition at 0.25 μM (HCT-116 cell line; HCT-116 cells): 42 | CDK4 % Inhibition at 0.03 μM ([1]; at 0.03 μM): −5% | CDK2 % Inhibition at 0.03 μM (CDK2/Cyclin A; at 0.03 μM): 10%

Nc1nc(NC2CCN(C(=O)[C@@H]3CCC(=O)O3)CC2)sc1C(=O)c1c(F)cccc1F [Example D5, 5S-[1{-4-[4-Amino-5-(2,6-difluoro-benzoyl)-thiazol-2-ylamethano]-piperidin-1-yl}-methanoyl]-tetrahydro-furan-2-one]
pIC50 (HCT-116 cell line; first HCT-116 column (c4)): < 5.30 | pIC50 (HCT-116 cell line; second HCT-116 column (c5)): < 5.30 | pKi [1]: 8.17 | pKi (CDK2/Cyclin A): 8.19

COc1ccc(OC)c(CC(=O)N2CCC(Nc3nc(N)c(C(=O)c4c(F)cccc4F)s3)CC2)c1 [Example Q78]
HCT-116 % Inhibition at 0.1 μM (HCT-116 cell line; [2]): 0.43% | HCT-116 % Inhibition at 0.25 μM (HCT-116 cell line; HCT-116, Table 4): 37% | CDK4 % Inhibition at 0.03 μM ([1]; 0.03 μM compound, Table 4): 46% | CDK2 % Inhibition at 0.03 μM (CDK2/Cyclin A; 0.03 μM compound, Table 4): 39%

CCOC(=O)c1ccc(NC(=O)N2CCC(Nc3nc(N)c(C(=O)c4c(F)cccc4F)s3)CC2)cc1 [Example O22]
HCT-116 % Inhibition at 0.25 μM (HCT-116 cell line; HCT-116, Table 2): 25% | CDK4 % Inhibition at 0.03 μM ([1]; 0.03 μM compound, Table 2): 13% | CDK2 % Inhibition At 0.03 μM (CDK2/Cyclin A; 0.03 μM compound): 34%

Nc1nc(NC2CCN(C(=O)N3CCOCC3)CC2)sc1C(=O)c1c(F)cccc1F [Example R80]
HCT-116 % Inhibition at 0.1 μM (HCT-116 cell line; HCT-116 cells, at 0.1 μM): 0% | HCT-116 5 Inhibition at 0.25 μM (HCT-116 cell line; HCT-116 cells): 47 | CDK4 % Inhibition at 0.03 μM ([1]; at 0.03 μM): 37% | CDK2 % Inhibition at 0.03 μM (CDK2/Cyclin A; at 0.03 μM): 7%

CN(C)CCN(C)c1ncc(S(=O)(=O)N2CCC(Nc3nc(N)c(C(=O)c4c(F)cccc4F)s3)CC2)cc1Br [Example G24, 1-[4-Amino-2-(1-{5-bromo-6-[(2-dimethylamino-ethyl)-methyl-amino]-pyridine-3-sulfonyl}-piperidin-4-ylamino)-thiazol-5-yl]-1-(2,6-difluoro-phenyl)-methanone]
pIC50 (HCT-116 cell line; first HCT-116 column (c4)): 6.54 | pIC50 (HCT-116 cell line; second HCT-116 column (c5)): 6.21 | pKi [1]: 9.32 | pKi (CDK2/Cyclin A): 9.07

Nc1nc(NC2CCN(C(=O)C(Cl)(c3ccccc3)c3ccccc3)CC2)sc1C(=O)c1c(F)cccc1F [Example Q51]
HCT-116 % Inhibition at 0.1 μM (HCT-116 cell line; [2]): 0% | HCT-116 % Inhibition at 0.25 μM (HCT-116 cell line; HCT-116, Table 4): 34% | CDK4 % Inhibition at 0.03 μM ([1]; 0.03 μM compound, Table 4): 22% | CDK2 % Inhibition at 0.03 μM (CDK2/Cyclin A; 0.03 μM compound, Table 4): 4%

COc1ccc(OC)c(C(=O)N2CCC(Nc3nc(N)c(C(=O)c4c(F)cccc4F)s3)CC2)c1 [Example R117]
HCT-116 % Inhibition at 0.1 μM (HCT-116 cell line; HCT-116 cells, at 0.1 μM): 7% | HCT-116 5 Inhibition at 0.25 μM (HCT-116 cell line; HCT-116 cells): 45 | CDK4 % Inhibition at 0.03 μM ([1]; at 0.03 μM): 66% | CDK2 % Inhibition at 0.03 μM (CDK2/Cyclin A; at 0.03 μM): 53%

COC(=O)CCCCCCCCC(=O)N1CCC(Nc2nc(N)c(C(=O)c3c(F)cccc3F)s2)CC1 [Example R76]
HCT-116 % Inhibition at 0.1 μM (HCT-116 cell line; HCT-116 cells, at 0.1 μM): 0% | HCT-116 5 Inhibition at 0.25 μM (HCT-116 cell line; HCT-116 cells): 38 | CDK4 % Inhibition at 0.03 μM ([1]; at 0.03 μM): 64% | CDK2 % Inhibition at 0.03 μM (CDK2/Cyclin A; at 0.03 μM): 53%
